The record followed here is patent US20220389061A1, “IMMUNOMODULATORS” (priority 2019, published 2022).

Starred links: 1 amine or outer side, 2 acyl side, 3 side chain; linkers in the order of their positions; H or OH if unused. Positions of bridges follow the written chain, without caps; N, C: chain ends. Non-standard residues stand in square brackets, D forms with d. Residues, ends and D or L forms follow the SMILES beside them. Groups on a side chain read outwards from the residue. *: point of attachment. Trp(1-CH2COOH) = N[C@@H](Cc1cn(CC(=O)O)c2ccccc12)C(=O)O; X73 = FC(F)(F)c1cc(NC(=S)*)cc(C(F)(F)F)c1; X88 = Cc1cc([N+](=O)[O-])ccc1NC(=S)*; Hyp = O=C(O)[C@@H]1C[C@@H](O)CN1; X10 = S=C(Nc1ccc(N2CCOCC2)cc1)*; X27 = Cc1cc([N+](=O)[O-])ccc1N*; X11 = S=C(Nc1ccccc1-c1ccccc1)*; X43 = S=C(Nc1ccccc1Oc1ccccc1)*; pNA = O=[N+]([O-])c1ccc(N*)cc1; NH(3-MeOPh) = COc1cccc(N*)c1; NMeNle = CCCC[C@H](NC)C(=O)O; X2 = c1ccc(-c2ccccc2N*)cc1; NMeA = CN[C@@H](C)C(=O)O; Dab = NCC[C@H](N)C(=O)O; X39 = CCCCOc1ccc(N*)cc1; Dap = NC[C@H](N)C(=O)O; X17 = Cc1cc(C)cc(N*)c1; X46 = COc1ccc(Cl)cc1N*; CO = O=C([*:1])[*:2]

One assay deals with T1, PD-1/PD-L1 (Homo sapiens, UniProt Q9NZQ7).
T1 construct: TVMV protease site linker (C); made in house; host or cells: HEK293T cells
T1 sequence (Q9NZQ7 18-239): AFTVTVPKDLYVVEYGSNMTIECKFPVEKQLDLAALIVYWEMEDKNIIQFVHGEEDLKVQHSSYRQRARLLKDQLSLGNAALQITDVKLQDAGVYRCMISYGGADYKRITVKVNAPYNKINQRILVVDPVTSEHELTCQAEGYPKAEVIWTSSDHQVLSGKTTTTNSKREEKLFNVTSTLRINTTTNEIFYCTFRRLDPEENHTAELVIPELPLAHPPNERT
Nature of the assay: PD-1/PD-L1 Homogenous Time-Resolved Fluorescence (HTRF) binding assay.
Conditions: not given
Put shortly:
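Compounds preincubated 15 min with PD-L1-His (10 nM final), then PD-1-Ig (20 nM final) added for 15 min in dPBS with 0.1% BSA, 0.05% Tween-20. Detection by Eu-cryptate anti-Ig (1 nM) and APC anti-His (20 nM) HTRF.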
The compound `CCCC[C@H]1C(=O)N(C)[C@@H](CCCC)C(=O)N[C@@H](CC(C)C)C(=O)N[C@H](C(=O)NCC(N)=O)CSCC(=O)N[C@@H](Cc2ccc(O)cc2)C(=O)N(C)[C@@H](C)C(=O)N[C@@H](CC(N)=O)C(=O)N2CCC[C@H]2C(=O)N[C@@H](CNC(=O)Nc2ccc([N+](=O)[O-])cc2C)C(=O)N[C@@H](CC(C)C)C(=O)N2C[C@H](O)C[C@H]2C(=O)N[C@@H](Cc2c[nH]c3ccccc23)C(=O)N[C@@H](CCNC(=O)Nc2ccc([N+](=O)[O-])cc2C)C(=O)N[C@@H](Cc2cn(CC(=O)O)c3ccccc23)C(=O)N1C` [Example 1122] ({CH2CO}-Y[NMeA]NP[Dap]([CO-X27])L[Hyp]W[Dab]([CO-X27])[Trp(1-CH2COOH)][NMeNle][NMeNle]LCG-NH2; thioether N-14) returned an IC50 of 14 nM.

With `CCCC[C@H]1C(=O)N(C)[C@@H](CCCC)C(=O)N[C@@H](CC(C)C)C(=O)N[C@H](C(=O)NCC(N)=O)CSCC(=O)N[C@@H](Cc2ccc(O)cc2)C(=O)N(C)[C@@H](C)C(=O)N[C@@H](CC(N)=O)C(=O)N2CCC[C@H]2C(=O)N[C@@H](CNC(=S)Nc2ccc([N+](=O)[O-])cc2C)C(=O)N[C@@H](CC(C)C)C(=O)N2C[C@H](O)C[C@H]2C(=O)N[C@@H](Cc2c[nH]c3ccccc23)C(=O)N[C@@H](CCNC(=S)Nc2ccc([N+](=O)[O-])cc2C)C(=O)N[C@@H](Cc2cn(CC(=O)O)c3ccccc23)C(=O)N1C` [Example 1125] ({CH2CO}-Y[NMeA]NP[Dap](X88)L[Hyp]W[Dab](X88)[Trp(1-CH2COOH)][NMeNle][NMeNle]LCG-NH2; thioether N-14), the IC50 is 6.7 nM.

With `CCCC[C@H]1C(=O)N(C)[C@@H](CCCC)C(=O)N[C@@H](CC(C)C)C(=O)N[C@H](C(=O)NCC(N)=O)CSCC(=O)N[C@@H](Cc2ccc(O)cc2)C(=O)N(C)[C@@H](C)C(=O)N[C@@H](CC(N)=O)C(=O)N2CCC[C@H]2C(=O)N[C@@H](CNC(=O)Nc2ccc([N+](=O)[O-])cc2)C(=O)N[C@@H](CC(C)C)C(=O)N2C[C@H](O)C[C@H]2C(=O)N[C@@H](Cc2c[nH]c3ccccc23)C(=O)N[C@@H](CCNC(=O)Nc2ccc([N+](=O)[O-])cc2)C(=O)N[C@@H](Cc2cn(CC(=O)O)c3ccccc23)C(=O)N1C` [Example 1130] ({CH2CO}-Y[NMeA]NP[Dap]([CO-pNA])L[Hyp]W[Dab]([CO-pNA])[Trp(1-CH2COOH)][NMeNle][NMeNle]LCG-NH2; thioether N-14), the IC50 amounted to 2 nM.

As for `CCCC[C@H]1C(=O)N(C)[C@@H](CCCC)C(=O)N[C@@H](CC(C)C)C(=O)N[C@H](C(=O)NCC(N)=O)CSCC(=O)N[C@@H](Cc2ccc(O)cc2)C(=O)N(C)[C@@H](C)C(=O)N[C@@H](CC(N)=O)C(=O)N2CCC[C@H]2C(=O)N[C@@H](CN)C(=O)N[C@@H](CC(C)C)C(=O)N2C[C@H](O)C[C@H]2C(=O)N[C@@H](Cc2c[nH]c3ccccc23)C(=O)N[C@@H](CCNC(=O)Nc2ccc([N+](=O)[O-])cc2)C(=O)N[C@@H](Cc2cn(CC(=O)O)c3ccccc23)C(=O)N1C` [Example 1131] ({CH2CO}-Y[NMeA]NP[Dap]L[Hyp]W[Dab]([CO-pNA])[Trp(1-CH2COOH)][NMeNle][NMeNle]LCG-NH2; thioether N-14), the IC50 was 7.3 nM.

The assay is the same for the next values; noted with them: PD-L1-His 10 nM pre-incubated with inhibitor, PD-1-Ig 20 nM; read-out: HTRF IC50.
Take `CCCCOc1ccc(NC(=O)NCC[C@@H]2NC(=O)[C@H](Cc3c[nH]c4ccccc34)NC(=O)[C@@H]3C[C@@H](O)CN3C(=O)[C@H](CC(C)C)NC(=O)[C@H](CNC(=O)Nc3ccc(OCCCC)cc3)NC(=O)[C@@H]3CCCN3C(=O)[C@H](CC(N)=O)NC(=O)[C@H](C)N(C)C(=O)[C@H](Cc3ccc(O)cc3)NC(=O)CSC[C@@H](C(=O)NCC(N)=O)NC(=O)[C@H](CC(C)C)NC(=O)[C@H](CCCC)N(C)C(=O)[C@H](CCCC)N(C)C(=O)[C@H](Cc3cn(CC(=O)O)c4ccccc34)NC2=O)cc1` [Example 1120] ({CH2CO}-Y[NMeA]NP[Dap]([CO-X39])L[Hyp]W[Dab]([CO-X39])[Trp(1-CH2COOH)][NMeNle][NMeNle]LCG-NH2; thioether N-14): the IC50 amounted to 8.5 nM.

For `CCCC[C@H]1C(=O)N(C)[C@@H](CCCC)C(=O)N[C@@H](CC(C)C)C(=O)N[C@H](C(=O)NCC(N)=O)CSCC(=O)N[C@@H](Cc2ccc(O)cc2)C(=O)N(C)[C@@H](C)C(=O)N[C@@H](CC(N)=O)C(=O)N2CCC[C@H]2C(=O)N[C@@H](CNC(=O)Nc2cc(C)cc(C)c2)C(=O)N[C@@H](CC(C)C)C(=O)N2C[C@H](O)C[C@H]2C(=O)N[C@@H](Cc2c[nH]c3ccccc23)C(=O)N[C@@H](CCNC(=O)Nc2cccc(OC)c2)C(=O)N[C@@H](Cc2cn(CC(=O)O)c3ccccc23)C(=O)N1C` [Example 1121] ({CH2CO}-Y[NMeA]NP[Dap]([CO-X17])L[Hyp]W[Dab]([CO-NH(3-MeOPh)])[Trp(1-CH2COOH)][NMeNle][NMeNle]LCG-NH2; thioether N-14), the IC50 is 14 nM.

Consider `CCCC[C@H]1C(=O)N(C)[C@@H](CCCC)C(=O)N[C@@H](CC(C)C)C(=O)N[C@H](C(=O)NCC(N)=O)CSCC(=O)N[C@@H](Cc2ccc(O)cc2)C(=O)N(C)[C@@H](C)C(=O)N[C@@H](CC(N)=O)C(=O)N2CCC[C@H]2C(=O)N[C@@H](CNC(=O)Nc2cc(Cl)ccc2OC)C(=O)N[C@@H](CC(C)C)C(=O)N2C[C@H](O)C[C@H]2C(=O)N[C@@H](Cc2c[nH]c3ccccc23)C(=O)N[C@@H](CCNC(=O)Nc2cc(Cl)ccc2OC)C(=O)N[C@@H](Cc2cn(CC(=O)O)c3ccccc23)C(=O)N1C` [Example 1123] ({CH2CO}-Y[NMeA]NP[Dap]([CO-X46])L[Hyp]W[Dab]([CO-X46])[Trp(1-CH2COOH)][NMeNle][NMeNle]LCG-NH2; thioether N-14), for which the IC50 stood at 4.4 nM.

As for `CCCC[C@H]1C(=O)N(C)[C@@H](CCCC)C(=O)N[C@@H](CC(C)C)C(=O)N[C@H](C(=O)NCC(N)=O)CSCC(=O)N[C@@H](Cc2ccc(O)cc2)C(=O)N(C)[C@@H](C)C(=O)N[C@@H](CC(N)=O)C(=O)N2CCC[C@H]2C(=O)N[C@@H](CNC(=S)Nc2cc(C(F)(F)F)cc(C(F)(F)F)c2)C(=O)N[C@@H](CC(C)C)C(=O)N2C[C@H](O)C[C@H]2C(=O)N[C@@H](Cc2c[nH]c3ccccc23)C(=O)N[C@@H](CCNC(=S)Nc2cc(C(F)(F)F)cc(C(F)(F)F)c2)C(=O)N[C@@H](Cc2cn(CC(=O)O)c3ccccc23)C(=O)N1C` [Example 1124] ({CH2CO}-Y[NMeA]NP[Dap](X73)L[Hyp]W[Dab](X73)[Trp(1-CH2COOH)][NMeNle][NMeNle]LCG-NH2; thioether N-14), the IC50 was 87 nM.

In the case of `CCCC[C@H]1C(=O)N(C)[C@@H](CCCC)C(=O)N[C@@H](CC(C)C)C(=O)N[C@H](C(=O)NCC(N)=O)CSCC(=O)N[C@@H](Cc2ccc(O)cc2)C(=O)N(C)[C@@H](C)C(=O)N[C@@H](CC(N)=O)C(=O)N2CCC[C@H]2C(=O)N[C@@H](CNC(=S)Nc2ccc(N3CCOCC3)cc2)C(=O)N[C@@H](CC(C)C)C(=O)N2C[C@H](O)C[C@H]2C(=O)N[C@@H](Cc2c[nH]c3ccccc23)C(=O)N[C@@H](CCNC(=S)Nc2ccc(N3CCOCC3)cc2)C(=O)N[C@@H](Cc2cn(CC(=O)O)c3ccccc23)C(=O)N1C` [Example 1127] ({CH2CO}-Y[NMeA]NP[Dap](X10)L[Hyp]W[Dab](X10)[Trp(1-CH2COOH)][NMeNle][NMeNle]LCG-NH2; thioether N-14), the 50% inhibitory concentration (IC50) came to 3 nM.

In the case of `CCCC[C@H]1C(=O)N(C)[C@@H](CCCC)C(=O)N[C@@H](CC(C)C)C(=O)N[C@H](C(=O)NCC(N)=O)CSCC(=O)N[C@@H](Cc2ccc(O)cc2)C(=O)N(C)[C@@H](C)C(=O)N[C@@H](CC(N)=O)C(=O)N2CCC[C@H]2C(=O)N[C@@H](CNC(=S)Nc2ccccc2-c2ccccc2)C(=O)N[C@@H](CC(C)C)C(=O)N2C[C@H](O)C[C@H]2C(=O)N[C@@H](Cc2c[nH]c3ccccc23)C(=O)N[C@@H](CCNC(=S)Nc2ccccc2-c2ccccc2)C(=O)N[C@@H](Cc2cn(CC(=O)O)c3ccccc23)C(=O)N1C` [Example 1128] ({CH2CO}-Y[NMeA]NP[Dap](X11)L[Hyp]W[Dab](X11)[Trp(1-CH2COOH)][NMeNle][NMeNle]LCG-NH2; thioether N-14), the IC50 was determined as 0.6 nM.

For `CCCC[C@H]1C(=O)N(C)[C@@H](CCCC)C(=O)N[C@@H](CC(C)C)C(=O)N[C@H](C(=O)NCC(N)=O)CSCC(=O)N[C@@H](Cc2ccc(O)cc2)C(=O)N(C)[C@@H](C)C(=O)N[C@@H](CC(N)=O)C(=O)N2CCC[C@H]2C(=O)N[C@@H](CNC(=S)Nc2ccccc2Oc2ccccc2)C(=O)N[C@@H](CC(C)C)C(=O)N2C[C@H](O)C[C@H]2C(=O)N[C@@H](Cc2c[nH]c3ccccc23)C(=O)N[C@@H](CCNC(=S)Nc2ccccc2Oc2ccccc2)C(=O)N[C@@H](Cc2cn(CC(=O)O)c3ccccc23)C(=O)N1C` [Example 1129] ({CH2CO}-Y[NMeA]NP[Dap](X43)L[Hyp]W[Dab](X43)[Trp(1-CH2COOH)][NMeNle][NMeNle]LCG-NH2; thioether N-14), the IC50 is 9.4 nM.

Staying with this assay, now noted: read-out: HTRF IC50; PD-L1-His 10 nM pre-incubated with inhibitor, PD-1-Ig 20 nM.
Turning to `CCCC[C@H]1C(=O)N(C)[C@@H](CCCC)C(=O)N[C@@H](CC(C)C)C(=O)N[C@H](C(=O)NCC(N)=O)CSCC(=O)N[C@@H](Cc2ccc(O)cc2)C(=O)N(C)[C@@H](C)C(=O)N[C@@H](CC(N)=O)C(=O)N2CCC[C@H]2C(=O)N[C@@H](CNC(=O)Nc2ccccc2-c2ccccc2)C(=O)N[C@@H](CC(C)C)C(=O)N2C[C@H](O)C[C@H]2C(=O)N[C@@H](Cc2c[nH]c3ccccc23)C(=O)N[C@@H](CCNC(=O)Nc2ccccc2-c2ccccc2)C(=O)N[C@@H](Cc2cn(CC(=O)O)c3ccccc23)C(=O)N1C` [Example 1126] ({CH2CO}-Y[NMeA]NP[Dap]([CO-X2])L[Hyp]W[Dab]([CO-X2])[Trp(1-CH2COOH)][NMeNle][NMeNle]LCG-NH2; thioether N-14), the 50% inhibitory concentration (IC50) was 1 nM.
